Data on one compound can be found in patent publication US11826369B2, “Targeting the TLK1/NEK1 axis in prostate cancer” (Board of Supervisors of Louisiana State University and …, priority 2019, dated 2023).

Assay [1] concerns recombinant human dopamine receptors (D1 and D3). Put plainly: Competitive radioassay with 7-Hydroxy DPAT, R-(+)-[3H] tracer. It counts as binding. As to conditions: 100 nM, compared to THD.
Assay [2] concerns LNCaP, VCaP and TRAMP-C2. Briefly: Clonogenic assays of AS PCa cells. The assay is classed as cell-based. On the procedure: All experiments were conducted in triplicates. […] The cells were grown for 2-3 weeks and stained with crystal violet. All experiments were conducted in triplicates. […] The cell lines used were human “normal” RWPE-1, LNCaP, (LNCaP-derivative) C4-2B, 22RV1, DU14, PC3, and mouse TRAMP-C2. FIGS. 11C and 11D show cell proliferation of LNCaP and TRAMP-C2 were determined during a 3 days incubation with different concentration of J54 (MTS assay). All experiments were conducted in triplicates. […] Representative analysis of two independent experiments are shown.
J54 in combination with anti-androgen (Bicalutamide) induces apoptosis in AS PCa cells. […] The inventors thus tested the same panel of cells in androgen containing medium (FBS) by proliferation assays. […] Note that VCaP cells were 60% inhibited by J54 alone, consistent with their elevated replication stress-driven DDR and checkpoint activation (FIG. 12E), which when suppressed with J54 could lead to apoptosis. Clonogenic assays are unable to distinguish the effects of a DNA damaging agent, which can result in either an impaired or delayed resumption of growth (cell division) or loss of viability due to increased killing of the initial population. The inventors thus measured in LNCaP and TRAMP-C2 cells the early change in cell number (MTT assay) over 72 h with J54 alone.

Assay [3] deals with T1, recombinant TLK1B (Homo sapiens, UniProt Q9UKI8).
T1 sequence (Q9UKI8 1-549 isoform Q9UKI8-3): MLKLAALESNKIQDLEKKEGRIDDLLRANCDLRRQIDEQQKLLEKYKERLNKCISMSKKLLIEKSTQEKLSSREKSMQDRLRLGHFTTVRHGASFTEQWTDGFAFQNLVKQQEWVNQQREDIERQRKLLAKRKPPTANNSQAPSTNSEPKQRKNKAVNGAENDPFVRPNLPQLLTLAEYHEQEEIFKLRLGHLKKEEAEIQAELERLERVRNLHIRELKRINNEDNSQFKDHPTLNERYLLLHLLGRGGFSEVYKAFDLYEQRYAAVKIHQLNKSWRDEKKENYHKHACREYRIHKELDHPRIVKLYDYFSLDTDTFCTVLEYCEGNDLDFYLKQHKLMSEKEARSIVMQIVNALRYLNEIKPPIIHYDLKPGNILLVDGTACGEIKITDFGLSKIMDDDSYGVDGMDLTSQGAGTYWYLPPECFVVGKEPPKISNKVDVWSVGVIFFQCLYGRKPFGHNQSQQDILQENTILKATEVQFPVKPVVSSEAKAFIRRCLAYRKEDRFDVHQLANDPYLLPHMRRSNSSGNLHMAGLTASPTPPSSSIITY
Put plainly: TLK1B kinase assay with Nek1 peptide (ADP Hunter), inhibitor screening. It counts as biochemical. Also noted: The full-length, 65 KDa recombinant human TLK1B (hTLK1B) for the in-vitro experiments was expressed and purified from bacteria; made in house; host or cells: bacteria. As to the method: FIG. 8A-FIG. 25 show further experiments into the present invention, with FIGS. 8A-8G show kinase assays, inhibitor screening, IC50 evaluation and competitive assays. Recombinant TLK1B purified to homogeneity (FIG. 8A) is active in kinase assays (FIG. 8B) and phosphorylates a specific Nek1 peptide (FIG. 8C). […] All experiments were conducted in triplicates. The DiscoverRx ADP Hunter™ (Eurofins DiscoverRx, Fremont, CA, US) Kit was used to measure the generation of ADP resulting from kinase phosphorylation of substrate.
Chemical synthesis of J54 and several different Phenothiazines and Protein expression and purification: Details were explained in section B of supplementary of material and methods. The full-length, 65 KDa recombinant human TLK1B (hTLK1B) for the in-vitro experiments was expressed and purified from bacteria as described earlier.
Results: A new PTH potent inhibitor of TLK1B. A few PTH antipsychotics were identified in a screen the inventors conducted from a compounds library as good inhibitors of TLK1. To find additional inhibitors, recombinant TLK1B was purified (FIG. 8A). The enzymatic activity was determined using the ADP-Hunter reagents and a Nek1 peptide containing the T141 target site. […] Several structurally similar compounds were synthesized as described in the Appendix (and see NMR and MS data FIGS. 10 and 11) and tested at 20 μM (FIGS. 8E and 8F). […] The inventors continued the inventors' characterization of J54.

The test system of assay [4] is p-Nek1-T141 in LNCaP, VCaP, TRAMP-C2. Briefly: Western blots of checkpoint and apoptotic markers. The settings on record: with or without BIC, all 3 AS cell lines. It counts as cell-based. As to the method:
LNCaP, VCaP, and TRAMP-C2 cells from the four treatment groups as indicated were analyzed by WB for several indicators of DNA damage/apoptosis and mediators of cell cycle arrest. Representative analysis of two independent experiments for each cell line are shown
J54 with Bicalutamide suppresses the checkpoint markers and induces apoptotic markers. LNCaP, VCaP, and TRAMP-C2 are the main examples of established PCa cell lines that are initially AS, but when maintained in ADT condition, recapitulate the conversion to AI growth observed in patients, and start growing again. In the initial phase of ADT, they arrest cell division, primarily at the G1/S transition, and become quiescent, which is a protective effect from undergoing replication forks collapse upon inhibition of the licensing function of the AR. […] The inventors were also able to reproduce that the expression of TLK1B was induced in LNCaP and TRAMP-C2 following the addition of BIC. […] The VCaP cells were a little different because even without any BIC, p-ATR and p-Chk1 were already elevated. This has been observed before and attributed to a constitutive DDR activation due to the TMPRSS2-ERG fusion in these cells.

As for `c1ccc2c(c1)Sc1ccccc1N2CCN1CCOCC1` [J54, 4-(2-(10H-phenothiazin-10-yl)ethyl) morpholine], the “antagonism of dopamine receptors” value in assay [1] is given as “very weak antagonist”. Moreover, the “growth of colonies of LNCaP cells cultured with BIC” value in assay [2] was “suppresses the growth of androgen-dependent colonies”. In assay [3] (new inhibitor screening assay), the IC50 is 12.6 µM. Also, the “inhibition of TLK1B compared with standard” value in assay [3] (tested at 20 μM) is “more inhibitory than Staurosporin”. In assay [4], the p-Nek1-T141 level result is listed as “reduction in the p-Nek1-T141”.
